Read-outs that look alike come from different tables or passages of the source.
Key:
rSmTAChE [1] = target: T1, rSmTAChE (Schistosoma mansoni, UniProt A0A3Q0KMM5); assay type: biochemical; details: for IC50: read-out: qAC50 (IC50), rSmTAChE;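 on Inhibition (%) (Average): mostly 20 µM final but a few compounds at 5 or 10 µM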;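 on Inhibition (%) Replicate A: mostly 20 µM final but a few compounds at 5 or 10 µM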;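 on Inhibition (%) Replicate B: mostly 20 µM final but a few compounds at 5 or 10 µM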
[2] = target: recombinant human acetylcholinesterase, rHsAChE (Homo sapiens, UniProt P22303); experiment: biochemical
Chain of recombinant human acetylcholinesterase, rHsAChE (P22303 32-614): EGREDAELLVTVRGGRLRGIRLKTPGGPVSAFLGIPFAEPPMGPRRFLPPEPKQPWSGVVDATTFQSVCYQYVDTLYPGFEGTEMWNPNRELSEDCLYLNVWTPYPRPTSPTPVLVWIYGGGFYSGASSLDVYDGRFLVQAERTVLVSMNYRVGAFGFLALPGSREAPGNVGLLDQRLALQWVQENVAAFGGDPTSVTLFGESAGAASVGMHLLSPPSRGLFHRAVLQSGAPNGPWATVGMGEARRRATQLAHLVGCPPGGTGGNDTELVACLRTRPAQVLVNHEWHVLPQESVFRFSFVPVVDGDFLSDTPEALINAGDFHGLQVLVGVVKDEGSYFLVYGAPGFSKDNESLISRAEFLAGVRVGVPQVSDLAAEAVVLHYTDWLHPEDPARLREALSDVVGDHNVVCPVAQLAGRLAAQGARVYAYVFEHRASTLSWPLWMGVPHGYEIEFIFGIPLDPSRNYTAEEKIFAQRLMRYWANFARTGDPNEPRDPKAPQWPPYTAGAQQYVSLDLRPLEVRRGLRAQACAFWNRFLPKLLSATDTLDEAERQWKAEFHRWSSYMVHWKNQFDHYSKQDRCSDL

rSmTAChE [3] = target: T1, rSmTAChE; experiment: biochemical
[4] = read-out: qAC50 (IC50), rHsAChE
[5] = dose response analysis of Drug Repurposing Hub hits against rHsAChE
[6] = read-out: HTS/rSmTAChE Inhibition (Ave, %)
[7] = read-out: rSmTAChE HTS Inhibition (Ave, %)

T1 sequence (A0A3Q0KMM5 27-661 limits assumed): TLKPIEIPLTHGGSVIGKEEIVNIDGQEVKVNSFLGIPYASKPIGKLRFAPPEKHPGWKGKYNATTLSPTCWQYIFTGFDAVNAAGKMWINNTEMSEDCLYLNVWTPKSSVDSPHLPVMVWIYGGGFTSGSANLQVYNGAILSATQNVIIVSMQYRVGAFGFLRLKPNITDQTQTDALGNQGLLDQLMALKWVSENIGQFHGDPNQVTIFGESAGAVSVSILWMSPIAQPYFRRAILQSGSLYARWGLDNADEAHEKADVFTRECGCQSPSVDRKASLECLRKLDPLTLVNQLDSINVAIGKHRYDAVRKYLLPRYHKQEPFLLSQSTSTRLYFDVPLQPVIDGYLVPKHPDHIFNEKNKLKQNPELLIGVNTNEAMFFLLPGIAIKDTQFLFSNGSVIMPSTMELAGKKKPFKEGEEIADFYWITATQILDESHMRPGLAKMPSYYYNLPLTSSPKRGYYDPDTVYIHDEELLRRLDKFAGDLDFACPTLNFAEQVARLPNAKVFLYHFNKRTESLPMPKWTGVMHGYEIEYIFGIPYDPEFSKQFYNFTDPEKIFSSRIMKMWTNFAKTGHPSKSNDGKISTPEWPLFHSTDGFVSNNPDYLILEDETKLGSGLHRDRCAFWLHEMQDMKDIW

| Structure (SMILES) | Data Mode (curve class), rSmTAChE (rSmTAChE [1]) | Data Mode (curve class), rHsAChE [2] | IC50 [2, 4] [µM] | Inhibition (%) (Average) (rSmTAChE [3]) | Inhibition (%) Replicate A (rSmTAChE [3]) [%] | Inhibition (%) Replicate B (rSmTAChE [3]) [%] | also measured |
| --- | --- | --- | --- | --- | --- | --- | --- |
| CCCN1C[C@H](CSC)C[C@@H]2c3cccc4[nH]cc(c34)C[C@H]21 [BRD-K60770992-066-25-0] | decreasing (weakly active) | decreasing | 29.7 | 71.65 | 73.49 | 69.82 | IC50 (rSmTAChE [1]): > 38 µM |
| Cc1cc(OCCCS(C)(=O)=O)cc(C)c1-c1cccc(COc2ccc3c(c2)OC[C@H]3CC(=O)O)c1 [TAK-875, reference compound] | decreasing |  |  |  |  |  | SI (Hs/Sm) (rSmTAChE [1]): 2.25; Data Mode (curve class), rHsAChE [2, 5]: decreasing (weakly active); inhibition at 20 µM (rSmTAChE [3]; [6]): 65% |
| C[C@H](Cc1ccc(O)c(O)c1)[C@@H](C)Cc1ccc(O)c(O)c1 [Masoprocol, reference compound] | decreasing |  |  |  |  |  | SI (Hs/Sm) (rSmTAChE [1]): 2.32; Data Mode (curve class), rHsAChE [2, 5]: decreasing (weakly active); inhibition at 20 µM (rSmTAChE [3]; [6]): 76.4% |
| CCCCCCCCCCCC1=C(O)C(=O)C=C(O)C1=O [Embelin, reference compound] | decreasing |  |  |  |  |  | SI (Hs/Sm) (rSmTAChE [1]): 1.44; fold greater potency/selectivity for SmTAChE vs. HsAChE (Selectivity Index) (rSmTAChE [1]): 1.4 fold; IC50 ([2]; IC50 (µM) rHsAChE): 1.8 µM; Data Mode (curve class), rHsAChE [2, 5]: decreasing; inhibition at 10 µM (rSmTAChE [3]; [6]): 88.7% |
| CC(=O)c1cc([N+](=O)[O-])c(Sc2cccc(Cl)c2Cl)s1 [BRD-K13606314-001-01-3] | inactive | decreasing (weakly active) | > 38 | 73.95 | 72.57 | 75.33 |  |
| O=C(C[C@@H]1C[C@@H]2c3cc(NC(=O)NC4CCCC4)ccc3O[C@@H]2[C@H](CO)O1)NCc1ccccc1F [BRD-K14652476-001-01-0] |  |  |  | 84.81 | 85.09 | 84.52 | rSmTAChE Data Mode (rSmTAChE [1]): inactive; rHsAChE Data Mode [2]: inactive |
| N#C[C@H]1[C@H](c2ccc(C3=CCCCC3)cc2)[C@@H](CO)N1S(=O)(=O)c1ccccc1 [BRD-K66729212-001-01-2] |  |  |  | 61.17 | 61.05 | 61.28 | rSmTAChE Data Mode (rSmTAChE [1]): inactive; rHsAChE Data Mode [2]: inactive |
| CCOc1nc2cccc(C(=O)OCc3oc(=O)oc3C)c2n1Cc1ccc(-c2ccccc2-c2noc(=O)[nH]2)cc1 [BRD-K25723200-001-03-5] | decreasing | decreasing (weakly active) | > 12 | 67.00 | 73.36 | 60.64 | IC50 (rSmTAChE [1]): 11.6 µM |
| CCCCC(=O)O[C@H]1CC[C@H]2[C@@H]3CCc4cc(O)ccc4[C@H]3CC[C@]12C [BRD-K66766661-001-19-2] | inactive | decreasing | 29.4 | 77.12 | 78.67 | 75.58 |  |
| NC(=O)N/N=C/c1ccc(Oc2ccc(F)cc2)cc1 [BRD-K70912147-001-01-8] | inactive | inactive |  | 75.84 | 80.22 | 71.46 |  |
| COc1cccc(C#Cc2ccc([C@H]3[C@@H](CO)N(C(=O)c4ccccn4)[C@H]3C#N)cc2)c1 [BRD-K64190282-004-01-8, (2R,3R,4S)-4-(hydroxymethyl)-3-[4-[2-(3-methoxyphenyl)ethynyl]phenyl]-1-[oxo(2-pyridinyl)methyl]-2-azetidinecarbonitrile] |  |  |  |  |  |  | SI (Hs/Sm) (rSmTAChE [1]): 2.59; rSmTAChE Data Mode (rSmTAChE [1]): decreasing; IC50 ([2]; Table 2, DOS-A library, Inactive = inactive at the maximum tested concentration (40 µM), read-out: IC50 (µM) rHsAChE): 33.7 µM; rHsAChE Data Mode ([2]; dose response curve classification, Table S4, DOS-A): decreasing; inhibition at 20 µM (rSmTAChE [3]; [7]): 92.2% |
| O=C(C[C@@H]1C[C@@H]2c3cc(NC(=O)Nc4ccccc4)ccc3O[C@@H]2[C@@H](CO)O1)NC1CCCC1 [BRD-K74918080-001-01-0] |  |  |  | 91.31 | 92.86 | 89.77 | rSmTAChE Data Mode (rSmTAChE [1]): decreasing (weakly active); rHsAChE Data Mode [2]: inactive |
| CCC(CC)C(c1ccc(Nc2nc3ccccc3s2)cc1)n1cncn1 (stereo not shown) [BRD-A95755460-001-01-3] | decreasing (weakly active) | inactive |  | 71.38 | 75.72 | 67.03 | IC50 (rSmTAChE [1]): > 38 µM |
| C[C@]12CCC3c4ccc(O)cc4CCC3C1CC[C@@H]2OC(=O)CCC1CCCC1 (stereo partly shown) [BRD-A91452556-001-04-0] | inactive | decreasing (weakly active) | > 38 | 88.63 | 90.28 | 86.98 |  |
| C[C@]12CC[C@@H]3c4ccc(O)cc4C[C@@H](CCCCCCCCC[S+]([O-])CCCC(F)(F)C(F)(F)F)[C@H]3[C@@H]1CC[C@@H]2O (stereo partly shown) [BRD-A85667082-001-13-5] | inactive | inactive |  | 86.15 | 85.50 | 86.80 |  |
| C[C@H]1[C@H](C)CC[C@]2(C(=O)O)CC[C@]3(C)C(=CC[C@@H]4[C@@]5(C)CC[C@H](O)C(C)(C)[C@@H]5CC[C@]43C)[C@H]12 [BRD-K68185022-001-14-8] | decreasing (weakly active) | inactive |  | 75.09 | 74.28 | 75.90 | IC50 (rSmTAChE [1]): > 38 µM |
| CC(C)(C#N)c1ccc(N2C(=O)OCc3cnc4ccc(-c5cnc6ccccc6c5)cc4c32)cc1 [BRD-K24556407-001-02-3] | inactive | inactive |  | 72.65 | 73.71 | 71.58 |  |
| COC(=O)[C@]12CCC(C)(C)C[C@@H]1[C@@H]1C(=O)C=C3[C@]4(C)C=C(C#N)C(=O)C(C)(C)[C@@H]4CC[C@@]3(C)[C@]1(C)CC2 [BRD-K69694239-001-02-2] | decreasing | decreasing (weakly active) | > 38 | 75.78 | 75.16 | 76.41 | IC50 (rSmTAChE [1]): 34.7 µM |
| COc1ccc(-c2ccc3ncc4c(c3c2)n(-c2ccc(N3CCNCC3)c(C(F)(F)F)c2)c(=O)n4C)cn1 [NVP-BGT226, reference compound] | decreasing (weakly active) |  |  |  |  |  | SI (Sm/Hs) [2]: 2.81; IC50 ([2]; Table 3, read-out: IC50 (µM) rHsAChE): > 13.5 µM; Data Mode (curve class), rHsAChE [2, 5]: decreasing (weakly active); inhibition at 10 µM (rSmTAChE [3]; [7]): 84.3% |
| CN(Cc1ccc(C(C)(C)C)cc1)Cc1cccc2ccccc12 [BRD-K90630139-003-05-9] | inactive | decreasing (weakly active) | > 38 | 62.99 | 64.97 | 61.01 |  |
| O=C(C[C@H]1C[C@H]2c3cc(NC(=O)Nc4ccc(C(F)(F)F)cc4)ccc3O[C@H]2[C@H](CO)O1)NC1CCCCC1 [BRD-K50094564-001-01-3] |  |  |  | 69.15 | 68.27 | 70.03 | rSmTAChE Data Mode (rSmTAChE [1]): decreasing (weakly active); rHsAChE Data Mode [2]: inactive |
| N#C[C@H]1[C@H](c2ccc(C#CC3CC3)cc2)[C@H](CO)N1C(=O)Cc1ccccn1 [BRD-K00124439-001-01-2] |  |  |  | 63.26 | 63.67 | 62.84 | rSmTAChE Data Mode (rSmTAChE [1]): decreasing (weakly active); rHsAChE Data Mode [2]: inactive |
